From US20120258980A1, “Antibacterial Agent for Drug-Resistant Bacteria, Method for Screening for Same, and Use of Same” (priority 2009, published 2012)
≈ marks a conversion by molar mass, not a printed value.

Legend:
[1] = system: MRSA, CA-MRSA and MSSA of Staphylococcus aureus; test: MIC measurement, Test Example 4 (MRSA, CA-MRSA and MSSA strains); format: cell-based
Experimental: (§1) Each of the bacterial strains listed in Table 1-1 was shake-cultured at 37° C. overnight in 4 mL of a medium (Tryptical Soy Broth: TSB, product of Becton Dickinson and Company). FDA209P was used as a control.
(§2) After completion of culturing, the resultant culture was suspended in a cation-adjusted Mueller Hinton Broth (CAMHB, product of Becton Dickinson and Company). Then, the obtained bacterial culture was adjusted in absorbance with the CAMHB so that the absorbance at 578 nm of the bacterial culture was adjusted to 0.3 measured by an absorption spectrometer. In addition, the resultant bacterial culture was 500-fold diluted with the CAMHB.
(§3) Each of the 500-fold diluted, pre-cultured bacterial cultures was added at 50 μL/well to the CAMHB containing the quinolones and the nybomycins at various concentrations (50 μL/well), followed by statically culturing at 37° C. overnight.
(§4) After completion of culturing, the growth of the bacteria was visually determined based on turbidity to measure MIC in each bacterial strain.
Glycopeptides, imipenem, quinolones and nybomycins were studied for antibacterial activity against the bacterial strains listed in Table 2-1; i.e., MRSA, CA-MRSA and MSSA of Staphylococcus aureus.

Enterococcus faecalis = test: MIC measurement, Test Example 6 (enterococcus); format: cell-based
Experimental: as §1, §2, §3, §4
Quinolones and nybomycins were evaluated for antibacterial activity against Enterococcus faecalis shown in Table 6, wherein the other strains than NCTC12201 and NCTC12203 were subdivided from Shionogi & Co., Ltd (note that these strains are available also from the Department of Bacteriology, Juntendo University). The NCTC strains are both vancomycin-resistant E. faecalis and available from the National Collection of Type Cultures (NCTC).

[2] = system: methicillin-susceptible S. aureus (MSSA), MRSA and mutants thereof; test: MIC measurement, Test Example 3 (MSSA, MRSA and sequential gyrA/grlA quinolone-resistant mutants); format: cell-based, Staphylococcus aureus
From the text: That is, the first-step quinolone-resistant mutants are bacterial strains which are the same as their parent strains (clinical isolates) except that the genes shown in the corresponding parts of Table 1-1 are mutated. The second-step quinolone-resistant mutants are bacterial strains which are the same as the first-step quinolone-resistant mutants except that the genes shown in the corresponding parts of Table 1-1 are further mutated. The third-step quinolone-resistant mutants are bacterial strains which are the same as the second-step quinolone-resistant mutants except that the genes shown in the corresponding parts of Table 1-1 are further mutated. The fourth-step quinolone-resistant strain is a bacterial strain which is the same as the third-step quinolone-resistant mutant bacteria except that the gene shown in the corresponding part of Table 1-1 is further mutated.
as §1, §2, §3, §4

`Cl.O=C(O)c1cn(C2CC2)c2cc(N3CCNCC3)c(F)cc2c1=O` [CPFX, ciprofloxacin chloride] showed an MIC ([1]; ISA12-1, MRSA) of 0.5 mg/L, an MIC ([1]; ISA35-1, MRSA) of 4 mg/L and an MIC ([1]; ISA51-1, MSSA) of 0.5 mg/L. It also gave an MIC ([1]; ISA58-1, MRSA) of 0.5 mg/L, an MIC ([1]; ISA73-1, MSSA) of 0.5 mg/L and an MIC ([1]; KBSA34, MRSA) of 0.5 mg/L. The MIC ([1]; KBSA72, MRSA) was 128 mg/L, the MIC ([1]; KBSA96, MRSA) was 32 mg/L and the MIC ([1]; KBSA171, MRSA) was 64 mg/L. It also gave an MIC ([1]; KSA24, MRSA) of 32 mg/L, an MIC ([1]; KSA31, MRSA) of 8 mg/L and an MIC ([1]; KSA36, MRSA) of 128 mg/L. For the same compound, the MIC ([1]; USA300 FPR3757, CA-MRSA) was 16 mg/L, the MIC (Enterococcus faecalis; E. faecalis 36-15672, quinolone-susceptible enterococci) was 1 mg/L and the MIC (Enterococcus faecalis; E. faecalis 36-15673, quinolone-susceptible enterococci) was 1 mg/L. It also gave an MIC (Enterococcus faecalis; E. faecalis 36-15678, quinolone-susceptible enterococci) of 1 mg/L, an MIC (Enterococcus faecalis; E. faecalis 36-15686, quinolone-resistant enterococci) of 128 mg/L and an MIC (Enterococcus faecalis; E. faecalis 36-15688, quinolone-susceptible enterococci) of 1 mg/L. The MIC (Enterococcus faecalis; E. faecalis 36-15694, quinolone-resistant enterococci) was 32 mg/L, the MIC (Enterococcus faecalis; E. faecalis 36-15696, quinolone-susceptible enterococci) was 1 mg/L and the MIC (Enterococcus faecalis; E. faecalis 36-15703, quinolone-resistant enterococci) was 32 mg/L. It also gave an MIC (Enterococcus faecalis; E. faecalis 36-15716, quinolone-resistant enterococci) of 128 mg/L, an MIC (Enterococcus faecalis; E. faecalis 36-15718, quinolone-susceptible enterococci) of 1 mg/L and an MIC (Enterococcus faecalis; E. faecalis 36-15720, quinolone-susceptible enterococci) of 2 mg/L. For the same compound, the MIC (Enterococcus faecalis; E. faecalis 36-15722, quinolone-resistant enterococci) was 64 mg/L, the MIC (Enterococcus faecalis; E. faecalis 36-15726, quinolone-resistant enterococci) was 64 mg/L and the MIC (Enterococcus faecalis; E. faecalis 36-15730, quinolone-susceptible enterococci) was 2 mg/L. It also gave an MIC (Enterococcus faecalis; E. faecalis 36-15736, quinolone-susceptible enterococci) of 1 mg/L, an MIC (Enterococcus faecalis; E. faecalis 36-15741, quinolone-susceptible enterococci) of 2 mg/L and an MIC (Enterococcus faecalis; E. faecalis NCTC12201, vancomycin-resistant (VRE), quinolone-susceptible enterococci) of 1 mg/L. The MIC (Enterococcus faecalis; E. faecalis NCTC12203, vancomycin-resistant (VRE), quinolone-susceptible enterococci) was 1 mg/L, the MIC ([2]; MR5867-1, first-step quinolone-resistant mutant, grlA E84K) was 2 mg/L and the MIC ([2]; MR5867-2, second-step mutant, further gyrA S84L) was 32 mg/L. It also gave an MIC ([2]; MS5935-1, first-step quinolone-resistant mutant, grlA S80F) of 2 mg/L, an MIC ([2]; MS5935-2, second-step mutant, further gyrA S84L) of 32 mg/L and an MIC ([2]; MS5952-1, first-step quinolone-resistant mutant, grlA S80Y) of 2 mg/L. For the same compound, the MIC ([2]; MS5952-2, second-step mutant, further gyrA S84L) was 8 mg/L and the MIC ([2]; MS5952-3, third-step mutant, further grlA A116V) was 64 mg/L.

For `C[C@@H](O)[C@H]1C(=O)N2C(C(=O)O)=C(SCCN=CN)C[C@H]12` [IPM, imipenem], the MIC ([1]; Staphylococcus aureus, ATCC 29213 / MRSA / MSSA, ATCC 29213, MSSA) was < 0.03 mg/L, the MIC ([1]; Staphylococcus aureus, COL, MRSA) was 64 mg/L (≈ 214 µM) and the MIC ([1]; Staphylococcus aureus, FDA209P / MRSA / MSSA, FDA209P, MSSA) was < 0.03 mg/L. It also gave an MIC ([1]; Staphylococcus aureus, ISA12-1, MRSA) of 16 mg/L (≈ 53.4 µM), an MIC ([1]; Staphylococcus aureus, ISA12-2, MRSA) of 16 mg/L (≈ 53.4 µM) and an MIC ([1]; Staphylococcus aureus, ISA35-1, MRSA) of 1 mg/L (≈ 3.34 µM). For the same compound, the MIC ([1]; Staphylococcus aureus, ISA37-1, MSSA) was 0.125 mg/L (≈ 0.418 µM), the MIC ([1]; Staphylococcus aureus, ISA49-1, MSSA) was 0.25 mg/L (≈ 0.835 µM) and the MIC ([1]; Staphylococcus aureus, ISA51-1, MSSA) was 0.25 mg/L (≈ 0.835 µM). It also gave an MIC ([1]; Staphylococcus aureus, ISA56-3, MRSA) of 16 mg/L (≈ 53.4 µM), an MIC ([1]; Staphylococcus aureus, ISA58-1, MRSA) of 0.125 mg/L (≈ 0.418 µM) and an MIC ([1]; Staphylococcus aureus, ISA62-1, MRSA) of 2 mg/L (≈ 6.68 µM). The MIC ([1]; Staphylococcus aureus, ISA73-1, MSSA) was 0.25 mg/L (≈ 0.835 µM), the MIC ([1]; Staphylococcus aureus, KBSA32, MRSA) was 0.25 mg/L (≈ 0.835 µM) and the MIC ([1]; Staphylococcus aureus, KBSA34, MRSA) was 0.25 mg/L (≈ 0.835 µM). For the same compound, the MIC ([1]; Staphylococcus aureus, KBSA72, MRSA) was 0.125 mg/L (≈ 0.418 µM), the MIC ([1]; Staphylococcus aureus, KBSA96, MRSA) was 0.25 mg/L (≈ 0.835 µM) and the MIC ([1]; Staphylococcus aureus, KBSA171, MRSA) was 0.25 mg/L (≈ 0.835 µM). The MIC ([1]; Staphylococcus aureus, KSA24, MRSA) was 0.5 mg/L (≈ 1.67 µM), the MIC ([1]; Staphylococcus aureus, KSA31, MRSA) was 0.125 mg/L (≈ 0.418 µM) and the MIC ([1]; Staphylococcus aureus, KSA36, MRSA) was 0.5 mg/L (≈ 1.67 µM). For the same compound, the MIC ([1]; Staphylococcus aureus, MRSA / MSSA / NCTC 8325, NCTC 8325, MSSA) was ≤ 0.063 mg/L, the MIC ([1]; Staphylococcus aureus, MRSA / MSSA / USA300, USA300 FPR3757, CA-MRSA) was 2 mg/L (≈ 6.68 µM) and the MIC ([1]; Staphylococcus aureus, MW2, CA-MRSA) was 2 mg/L (≈ 6.68 µM). The MIC ([1]; Staphylococcus aureus, N315, MRSA) was 8 mg/L (≈ 26.7 µM).
